“Also recorded” adds a separate entry of the source.
Experiments:
[1] = tested on: mitochondrial fraction of mouse brain; experiment: Mitochondrial swelling assay, mouse brain; type: biochemical; conditions: 1 mM
Protocol: (§1) Freshly isolated mitochondrial fraction was washed with extraction buffer to remove EDTA and resuspended in swelling buffer (Mannitol 220 mM, Sucrose 70 mM, Tris, pH 7.2, 150 mM, KH2PO4, pH 7.2, 0.2 mM; 0.2 mg in 100 μL) freshly supplemented with potassium succinate, pH 7.2, 5 mM. Every component was sodium-free. Optical density was monitored at the wave length of 540 nm for 2-5 minutes before the addition of the examined reagents, e.g. methyl jasmonate, and for additional 20 minutes afterwards.
(§2) In order to examine the consistency of the relationship between the ability of methyl jasmonate to detach bound hexokinase and mitochondrial damage, methyl jasmonate was tested in mouse brain in comparison to mouse liver. The comparison was performed due to known differences of mitochondrial hexokinase content between mouse brain vs. its liver. It is well established in the art that brain mitochondrial fraction is rich in bound hexokinase, while liver mitochondrial fraction is essentially devoid of it (Wilson, 1995). […] Mitochondrial fractions were incubated for either 10, 30 or 60 minutes at 37° C. The activity of unbound hexokinase was measured and compared to the activity of spontaneously (control) detached hexokinase. Consequently, the ability of methyl jasmonate to induce swelling in mitochondrial fraction isolated from mouse brain and liver was tested.

[2] = Fingrut, 2002, 2005, Rotem; cited from earlier work
[3] = tested on: mitochondrial fraction of mouse liver; experiment: Mitochondrial swelling assay, mouse liver; type: biochemical; conditions: 1 mM
Protocol: as §1, §2

purified rat brain HKI = biological target: T1, purified rat brain HKI (Rattus norvegicus, UniProt P05708); experiment: Surface plasmon resonance analysis of jasmonate-HK interactions; type: binding; conditions: analyte injected at varying concentrations (MJ 0.375-6 mM); 25° C.
T1 construct: from tissue; host or cells: rat brain mitochondria
T1 sequence (P05708 whole entry): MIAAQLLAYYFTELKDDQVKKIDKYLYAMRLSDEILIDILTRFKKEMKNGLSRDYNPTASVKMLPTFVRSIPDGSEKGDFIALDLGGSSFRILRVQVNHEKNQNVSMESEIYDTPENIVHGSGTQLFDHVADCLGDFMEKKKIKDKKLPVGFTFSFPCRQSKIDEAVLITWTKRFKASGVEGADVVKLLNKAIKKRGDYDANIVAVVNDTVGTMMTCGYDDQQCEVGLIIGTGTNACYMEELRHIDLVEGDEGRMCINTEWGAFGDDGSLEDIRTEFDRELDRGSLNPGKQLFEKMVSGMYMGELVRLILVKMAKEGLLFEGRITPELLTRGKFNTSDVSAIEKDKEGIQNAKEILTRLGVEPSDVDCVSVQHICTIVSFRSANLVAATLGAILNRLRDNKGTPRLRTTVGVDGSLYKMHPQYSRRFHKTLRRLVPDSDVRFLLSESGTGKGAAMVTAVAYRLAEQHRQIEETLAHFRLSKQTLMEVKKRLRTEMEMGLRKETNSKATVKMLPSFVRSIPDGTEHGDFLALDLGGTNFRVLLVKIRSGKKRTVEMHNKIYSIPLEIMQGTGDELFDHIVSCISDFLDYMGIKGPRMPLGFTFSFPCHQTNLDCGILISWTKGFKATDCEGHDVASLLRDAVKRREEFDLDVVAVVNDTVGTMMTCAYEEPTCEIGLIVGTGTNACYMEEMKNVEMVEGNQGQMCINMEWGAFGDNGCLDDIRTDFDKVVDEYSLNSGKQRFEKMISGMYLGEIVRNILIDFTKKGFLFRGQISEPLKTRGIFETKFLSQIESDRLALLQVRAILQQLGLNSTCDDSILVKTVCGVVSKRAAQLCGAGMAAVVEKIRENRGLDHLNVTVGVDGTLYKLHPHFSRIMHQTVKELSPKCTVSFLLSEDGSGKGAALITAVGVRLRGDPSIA
Protocol: Rat brain HK-I was purified as following, crude brain mitochondria containing tightly bound HK-I were incubated with 1.2 mM glucose-6-phosphate and 0.5 mM K-EDTA to release the enzyme into the soluble fraction. Further purification of HK-I was achieved by affinity chromatography on Cibacron Blue-agarose (Pharmacia). The purified enzyme was concentrated and washed in 0.5 mM K-EDTA, 10 mM glucose, 1 mM dithiothreitol and 10 mM K-Hepes, pH 7.8, using an Amicon device and a 50,000 Da molecular mass cut-off membrane (Spectrum; type C). The concentrated enzyme (up to 1 mg/ml; 30-60 units/mg) was frozen in liquid nitrogen and stored at −80° C. until use (Azoulay-Zohar, 2004).
Surface plasmon resonance (SPR) is an optical biosensor technique that measures molecular binding events at a metal surface by detecting changes in the local refractive index. SPR is the surface-sensitive technique ideal for studying interactions between immobilized biomolecules (ligands) and a solution-phase analyte. The biosensor response is directly proportional to the mass of the bound analyte. The advantage of SPR for investigation of small molecular weight analytes over conventional techniques such as fluorescence or enzyme-linked immunosorbent assay is detection of an analyte being label-free and direct, without the need for labeling of analyte or multistep detection protocols (sandwich assay). […]

[4] = tested on: mitochondria-bound hexokinase (mitochondrial fraction from a CT-26 tumor); experiment: Hexokinase detachment assay, mitochondrial fraction of CT-26 tumor; type: biochemical, murine; conditions: CT-26 tumor mitochondrial fraction; 30 minutes of incubation
Protocol: Mitochondrial fraction was prepared by mechanical lysis and differential centrifugation. All stages were performed on ice. Cells or extracted tissues were washed with PBS and disrupted by homogenization in extraction buffer (Sucrose 250 mM, HEPES-NaOH 10 mM, pH 7.2) freshly supplemented with 0.1 mM EDTA and Protease Inhibitors cocktail (Sigma). For each gram of cells or tissue, 4 volumes of extraction buffer were applied. The homogenate volume was doubled with the extraction buffer, and tissue and cell debris as well as nuclei were pelleted by centrifugation of 1,000 g for 10 minutes. The supernatant was further spun at 13,000 g for 10 minutes twice. Endoplasmic reticulum layer was removed. The pellet, designated as the mitochondrial fraction, was suspended in the appropriate buffer, depending on the assay for which the mitochondrial fraction was prepared. Mitochondrial fractions were used immediately or stored at −196° C.
To determine the amount of hexokinase detached from the mitochondrial fraction by different agents, mitochondria were incubated with the agent of interest and pelleted by centrifugation. Activity of hexokinase in the supernatant (i.e., activity of the detached hexokinase) was determined spectrophotometrically at 340 nm. The reaction couples the ADP formation by hexokinase, consuming the ADP for pyruvate formation by pyruvate kinase, and reducing the pyruvate with NADH by lactate dehydrogenase. Briefly, mitochondria were suspended in incubation buffer (HEPES pH 7.4 20 mM, Sucrose 0.25M, Glucose 10 mM, KCl5 mM, MgCl2 10 mM; 0.2 mg/test, 100 μL/test) and incubated as described below. […]
Methyl jasmonate perturbs mitochondria directly in a PTPC-dependent manner (Rotem, 2005). In order to determine whether methyl jasmonate is able to detach hexokinase from mitochondrial fraction isolated from CT-26 tumors, the activity of hexokinase in the supernatant of mitochondrial fraction treated for different time periods was measured. […] The activity of unbound hexokinase was measured and compared to the activity of spontaneously detached hexokinase (control).

hexokinase = experiment: Hexokinase activity, agent added directly to the coupled assay mixture; type: biochemical; conditions: coupled pyruvate kinase/lactate dehydrogenase assay, 340 nm
[5] = tested on: CT26 cells transfected with pcDNA3-HKII or pcDNA3; conditions: CT26; 3.75 μM; 3 hours exposure
Protocol: Cell death was determined by trypan blue exclusion. […] Alternatively, cytotoxicity was determined using hemacolor staining. Upon completion of a given experiment, cells were stained and the percentage of dead (detached) cells was determined spectrophotometrically.
CT26 cells were transfected with pcDNA3-HKII or pcDNA3, using FuGene HD transfection reagent (Roche, Basel, Switzerland), according to the manufacturer's instruction followed by selection using G418.
To examine the effect of hexokinase over-expression on methyl jasmonate action, CT26 cells were transfected with plasmids, pcDNA3-HKII or pcDNA3, encoding for hexokinase II over-expression and a control plasmid, respectively (Zaid, 2005). Cells were seeded in 96-well plates and allowed to adhere. Cells were exposed to methyl jasmonate for 60 minutes prior to ATP determination (FIG. […] 9B).

Structure (SMILES) | mitochondrial swelling (optical density at 540 nm) [1] | cytotoxicity relative to methyl jasmonate [2] | mitochondrial swelling (optical density at 540 nm) [3] | binding to immobilized hexokinase (SPR) (purified rat brain HKI) | detachment of hexokinase (activity of unbound hexokinase compared to control), dose dependence [4] | influence on hexokinase activity when added directly to the assay mixture (hexokinase) | cytotoxicity (hemacolor), hexokinase II over-expressing vs. control cells [5]
CC/C=C\C[C@H]1C(=O)CC[C@@H]1CC(=O)O [jasmonic acid] | to a marginal extent | lower cytotoxicity than methyl jasmonate | not in liver | did not bind hexokinase at all | did not show considerable detachment of hexokinase from mitochondrial fraction; also recorded: less effective than methyl jasmonate at detaching hexokinase from mitochondrial fraction | neither methyl jasmonate nor jasmonic acid added directly to the assay mixture, influence hexokinase activity | –
CN[C@@H]1C[C@H]2O[C@@](C)([C@@H]1OC)n1c3ccccc3c3c4c(c5c6ccccc6n2c5c31)C(=O)NC4 [staurosporine] | – | – | – | – | – | – | similarly decreased by hexokinase II over-expression

From patent publication US8349553B2, “Jasmonate based assays for identifying compounds that selectively inhibit mitochondrial bound hexokinases” (Ramot at Tel Aviv University Ltd., priority 2007, dated 2013)
